The subject of test [1] is Enterococcus faecalis (ATCC29212). In words: MIC, broth microdilution (CLSI), Enterococcus faecalis. It is filed as cell-based. Conditions: ATCC29212, Table XIV A. Gram-positive bacteria, read-out: E. faecalis ATCC 29212 MIC. (Broth dilution looks for growth in wells or tubes with falling amounts of substance.)
In test [2] the test system is Pseudomonas aeruginosa (ATCC27853). In words: MIC, broth microdilution (CLSI), Pseudomonas aeruginosa. It is filed as cell-based. Conditions: ATCC27853, Table XIV B. Gram-negative bacteria, read-out: P. aeruginosa ATCC 27853 MIC.
For test [3], the system named is Staphylococcus aureus subsp. aureus (ATCC29213). In words: MIC, broth microdilution (CLSI), Staphylococcus aureus ATCC29213. It is filed as cell-based. Conditions: Staphylococcus aureus, read-out: S. aureus ATCC 29213 MIC.
Test [4] has as its system E. coli RNase P RNA, M1 RNA. Kind of test: Inhibition of bacterial RNase P activity, IC50 determination (cleavage of pATSerUG by M1 RNA). It is filed as biochemical. The following applies: NI: No inhibition.
In test [5] the test system is S. aureus MRSA ATCC 33591. Kind of test: MIC, S. aureus MRSA ATCC 33591. It is filed as cell-based. Conditions: Staphylococcus aureus; Table XIV A. Gram-positive bacteria; read-out: S. aureus MRSA ATCC 33591 MIC.
Test [6] deals with S. aureus USA300 MRSA BAA-1717. In words: MIC, S. aureus USA300 MRSA BAA-1717. Conditions: Staphylococcus aureus; Table XIV A. Gram-positive bacteria; read-out: S. aureus USA300 MRSA BAA-1717 MIC. The test is classed as cell-based.
A further test concerns E. faecium ATCC 700221. In words: MIC, E. faecium ATCC 700221. Conditions: Enterococcus faecium, ATCC700221; Table XIV A. Gram-positive bacteria; read-out: E. faecium ATCC 700221 MIC. It is filed as cell-based.
A further test deals with S. pneumoniae ATCC 49619. In words: MIC, S. pneumoniae ATCC 49619. It is filed as cell-based. The following applies: Streptococcus pneumoniae, ATCC49619; Table XIV A. Gram-positive bacteria.
Another test deals with M. phlei ATCC 11758. In words: MIC, M. phlei ATCC 11758. It is filed as cell-based. The following applies: Mycolicibacterium phlei, ATCC11758; Table XIV A. Gram-positive bacteria.
The next test relates to M. fortuitum ATCC 110. In words: MIC, M. fortuitum ATCC 110. It is filed as cell-based. Conditions: Mycolicibacterium fortuitum, ATCC110; Table XIV A. Gram-positive bacteria.
For test [7], the system named is E. coli JW5503 (efflux defective). In words: MIC, E. coli JW5503 (efflux defective). Conditions: Escherichia coli, read-out: E. coli JW5503 (efflux defective) MIC. The test is classed as cell-based.
The test system of the next test is K. pneumoniae ATCC 43816. Kind of test: MIC, K. pneumoniae ATCC 43816. It is filed as cell-based. The following applies: Klebsiella pneumoniae, ATCC43816; Table XIV B. Gram-negative bacteria.
Another test relates to H. influenzae ATCC 49247. Kind of test: MIC, H. influenzae ATCC 49247. The test is classed as cell-based. The following applies: Haemophilus influenzae, ATCC49247; Table XIV B. Gram-negative bacteria.
The test system of another test is A. baumannii ATCC 17978. Kind of test: MIC, A. baumannii ATCC 17978. Conditions: Acinetobacter baumannii, ATCC17978; Table XIV B. Gram-negative bacteria. The test is classed as cell-based.
The subject of test [8] is P. aeruginosa NTUH974 (MDR). Kind of test: MIC, P. aeruginosa NTUH974 (MDR). The following applies: Pseudomonas aeruginosa; Table XIV B. Gram-negative bacteria; read-out: P. aeruginosa NTUH974 (MDR) MIC. It is filed as cell-based.
The subject of test [9] is N. gonorrhoeae ATCC 700825. In words: MIC, N. gonorrhoeae ATCC 700825. It is filed as cell-based. Conditions: Neisseria gonorrhoeae, ATCC700825; Table XIV B. Gram-negative bacteria.
Another test deals with H. pylori ATCC 43504. Kind of test: MIC, H. pylori ATCC 43504. Conditions: Helicobacter pylori, ATCC43504; Table XIV B. Gram-negative bacteria. It is filed as cell-based.
The subject of test [10] is Escherichia coli (ATCC25922). In words: MIC, broth microdilution (CLSI), Escherichia coli. Conditions: Escherichia coli.
Where [11] appears, read: ATCC29213, Table XIV A. Gram-positive bacteria.
Setting [12] is: ATCC25922, read-out: E. coli ATCC 25922 MIC, Table XIII.
The mark [13] stands for this setting: ATCC25922, read-out: E. coli ATCC 25922 MIC, Table XIV B. Gram-negative bacteria.

Converted amounts (≈) assume the structure as drawn. Read-outs that look alike come from different tables or passages of the source.

Turning to `Cc1cccc(-c2ccc3c(c2)c(CCCNCC(O)CN)cn3C2CCCCC2)c1` (stereo not drawn) [Compound 385, 1-amino-3-((3-(1-cyclohexyl-5-(m-tolyl)-1H-indol-3-yl)propyl)amino) propan-2-ol], the MIC in [1] is 2 µg/mL (≈ 4.77 µM); in test [2], 4 µg/mL (≈ 9.53 µM); in test [3] (ATCC29213, Table XIII) it was 4 µg/mL (≈ 9.53 µM); in [3] (setting [11]) it was 2 µg/mL (≈ 4.77 µM); in test [5], 2 µg/mL (≈ 4.77 µM); in test [6], 2 µg/mL (≈ 4.77 µM). The MIC in the test on E. faecium ATCC 700221 worked out at 2 µg/mL (≈ 4.77 µM); against S. pneumoniae ATCC 49619 it was 8 µg/mL (≈ 19.1 µM); against M. phlei ATCC 11758, 4 µg/mL (≈ 9.53 µM); against M. fortuitum ATCC 110 it was 2 µg/mL (≈ 4.77 µM); in test [7], 2 µg/mL (≈ 4.77 µM); against K. pneumoniae ATCC 43816 it was 4 µg/mL (≈ 9.53 µM). Further, the MIC was 2 µg/mL (≈ 4.77 µM) with H. influenzae ATCC 49247; 4 µg/mL (≈ 9.53 µM) in the test on A. baumannii ATCC 17978; 4 µg/mL (≈ 9.53 µM) in [8]; 2 µg/mL (≈ 4.77 µM) in test [9]; 8 µg/mL (≈ 19.1 µM) in the test with H. pylori ATCC 43504; 4 µg/mL (≈ 9.53 µM) in [10] (setting [12]). In addition, the MIC in test [10] (setting [13]) was 4 µg/mL (≈ 9.53 µM). Also, 13 µM corresponded to half-maximal inhibition in test [4] (IC50).

Regarding `Cc1cccc(-c2ccc3c(c2)c(CCCNCCCN)cn3C2CCCCC2)c1.Cl.Cl` [Compound 360, N1-(3-(1-cyclohexyl-5-(m-tolyl)-1H-indol-3-yl)propyl)propane-1,3-diamine hydrochloride salt], the MIC in [1] came out at 2 µg/mL; in [2], 8 µg/mL; in test [3] (ATCC29213, Table XIII) it was 4 µg/mL; in test [3] (setting [11]), 4 µg/mL; in [5], 2 µg/mL; in test [6], 2 µg/mL. Besides, the MIC was found to be 2 µg/mL in the test on E. faecium ATCC 700221; 8 µg/mL against S. pneumoniae ATCC 49619; 4 µg/mL in the test on M. phlei ATCC 11758; 4 µg/mL in the test with M. fortuitum ATCC 110; 2 µg/mL in [7]; 4 µg/mL against K. pneumoniae ATCC 43816. Besides, the MIC came out at 2 µg/mL with H. influenzae ATCC 49247; 4 µg/mL in the test with A. baumannii ATCC 17978; 8 µg/mL in [8]; 2 µg/mL in [9]; 8 µg/mL against H. pylori ATCC 43504; 4 µg/mL in test [10] (setting [12]). In addition, the MIC in test [10] (setting [13]) turned out to be 2 µg/mL. For the same compound, in test [4], the IC50 (as a rule, the concentration at which inhibition is half-maximal) came to 7.8 µM.

With `NCCCNCCC(c1cccc(OC(F)(F)F)c1)c1cn(C2CCCCC2)c2ccccc12` (stereo not drawn) [Compound 348, N1-(3-(1-cyclohexyl-1H-indol-3-yl)-3-(3-(trifluoromethoxy)phenyl)propyl)propane-1,3-diaminesalt], the MIC is 2 µg/mL in test [1]; 8 µg/mL in [2]; 4 µg/mL in [3] (ATCC29213, Table XIII); 4 µg/mL in test [3] (setting [11]); 4 µg/mL in test [5]; 4 µg/mL in [6]. The MIC with E. faecium ATCC 700221 came out at 2 µg/mL; in the test on S. pneumoniae ATCC 49619, 8 µg/mL; against M. phlei ATCC 11758, 4 µg/mL; in the test on M. fortuitum ATCC 110, 4 µg/mL; in test [7] it was 2 µg/mL; against K. pneumoniae ATCC 43816, 2 µg/mL. Also, the MIC in the test with H. influenzae ATCC 49247 was 4 µg/mL; in the test with A. baumannii ATCC 17978 it was 4 µg/mL; in test [8] it was 8 µg/mL; in [9] it was 2 µg/mL; in the test with H. pylori ATCC 43504, 16 µg/mL; in [10] (setting [12]), 4 µg/mL. In addition, the MIC in [10] (setting [13]) is 2 µg/mL. For the same compound, inhibition in test [4] was half-maximal at 4.5 µM (IC50).

The values are drawn from US20210246115A1 (Bioimics AB, priority 2017, published 2021).
